These results are taken from patent US5189016A, “Nutrient compositions containing peptides and method for administering the same” (Clintec Nutrition Co., priority 1990, dated 1993).

SMILES strings stand for the structures. Read-outs that look alike come from different tables or passages of the source. Peptide text beside a SMILES is read from it.

For data set [1] the following is noted: cited from earlier work.
On the set-up of data set [2]: species or system piglets. The following applies: in vivo. The source says: In this experiment slightly preterm, colostrum-deprived piglets were maintained on total parenteral nutrition from birth to day 7 of life. All piglets in this study have been enrolled and completed the study period in the University of Florida Piglet Neonatal Intensive Care Unit. Ten piglets in the control group received standard neonatal piglet total parenteral nutrition solution containing amino acids, glucose, lipid, vitamins and minerals. Eleven piglets in the experimental group received the same total […] nutrition formulation with the exception that 20% of the amino acids in the standard solution was replaced with glutamine. […] Nine piglets in each group completed the full 7 days of the study. One piglet in the control group and two piglets in the experimental group became septic. […] To date, the amino acid analyses have been completed on blood samples from six of the piglets in the experimental group and on blood samples from seven of the piglets in the control group.

Turning to `NC(=O)CC[C@H](N)C(=O)O` [Glutamine, glutamine], in data set [1] (30° C.), the Solubility in water is on record as 4.8 grams/100 mL.
Consider `NC(=O)C[C@H](N)C(=O)O` [asparagine], for which, in data set [1] (28° C.), the Solubility in water was 3.5 grams/100 mL.
`NCC(=O)N[C@@H](CCC(N)=O)C(=O)O` [glycylglutamine dipeptide, glycyl-glutamine] (H-Gly-Gln-OH): in data set [2], the “Adverse effect in septic piglets” value is recorded as “signs of severe convulsions”; the “Plasma glutamine concentration, mean” value turned out to be 544 nmol/mL; the “Plasma glutamine concentrations compared to control group” value is reported as “increases the plasma glutamine concentrations”.
As to `N[C@@H](Cc1c[nH]c2ccccc12)C(=O)O` [tryptophan], the Solubility in water in data set [1] (25° C.) is reported as 11.4 grams/100 mL.
